According to PMC6615261, “Repurposing Azithromycin and Rifampicin Against Gram-Negative Pathogens by Combination With Peptidomimetics” (Frontiers in Cellular and Infection Microbiology, 2019):

Legend:
K. pneumoniae ST258 = experiment: Potentiation of additional antibiotics (COMPAN1F plates), MIC; type: cell-based, Klebsiella pneumoniae; conditions: for MIC of antibiotic in presence of peptidomimetic 1: + 1 μM peptidomimetic 1; for MIC of antibiotic in presence of peptidomimetic 15: + 1 μM peptidomimetic 15; for MIC of antibiotic in presence of peptidomimetic 26: + 1 μM peptidomimetic 26; for MIC: Klebsiella pneumoniae, read-out: MIC of antibiotic alone; for MIC / MIC of antibiotic alone: no peptidomimetic
Experimental: (§1) Minimal inhibitory concentrations (MICs) of peptidomimetics, antibiotics and their combinations were determined by broth microdilution according to the Clinical Laboratory Standards Institute performance standards (Clinical and Laboratory Standards Institute, [2013]). […] Since rifampicin and azithromycin mainly are used to treat infections with Gram-positive pathogens only CLSI clinical breakpoints were available for such bacteria. […] Potentiation of additional antibiotics by peptidomimetics was determined by using commercial 96-well plates containing varied concentrations of standard antibiotics (COMPAN1F; Trek Diagnostic Systems Inc.). The peptidomimetics were added immediately prior to inoculation with pathogen, and then MICs were determined as above. The MICs of peptidomimetic/antibiotic combinations were determined according to the method above, and the concentration ratios were selected based upon checkerboard results with 2:1 and 1:4 ratio of peptidomimetic with rifampicin or azithromycin, respectively. Minimal bactericidal concentrations (MBCs) were determined by using growth-curve assay plates. MIC plates were prepared as above, and then the plates were incubated at 37°C with continuous shaking. Growth was recorded at 10 min intervals as optical density (OD) at 600 nm during 24 h. At 24 h, for wells without growth, a sample was diluted 10-fold in sterile saline (0.9% sodium chloride) and plated onto MHA, following CLSI guidelines (Clinical and Laboratory Standards Institute, [1999]).

E. coli ST131 = experiment: as above; type: cell-based, Escherichia coli; conditions: for MIC of antibiotic in presence of peptidomimetic 1: + 0.5 μM peptidomimetic 1; for MIC of antibiotic in presence of peptidomimetic 15: + 0.5 μM peptidomimetic 15; for MIC: Escherichia coli, read-out: MIC of antibiotic alone; for MIC / MIC of antibiotic alone: no peptidomimetic; for MIC of antibiotic in presence of peptidomimetic 26: + 0.25 μM peptidomimetic 26
Experimental: as §1

Compound	MIC of antibiotic in presence of peptidomimetic 1 (K. pneumoniae ST258) [µg/mL]	MIC of antibiotic in presence of peptidomimetic 15 (K. pneumoniae ST258) [µg/mL]	MIC of antibiotic in presence of peptidomimetic 26 (K. pneumoniae ST258) [µg/mL]	MIC (K. pneumoniae ST258) [µg/mL]	MIC of antibiotic in presence of peptidomimetic 1 (E. coli ST131) [µg/mL]	MIC of antibiotic in presence of peptidomimetic 15 (E. coli ST131) [µg/mL]	MIC (E. coli ST131) [µg/mL]	MIC of antibiotic in presence of peptidomimetic 26 (E. coli ST131)	MIC of antibiotic alone (K. pneumoniae ST258) [µg/mL]	MIC of antibiotic alone (E. coli ST131) [µg/mL]
CO/N=C(\C(=O)N[C@@H]1C(=O)N2C(C(=O)O)=C(CSC(=O)c3ccco3)CS[C@H]12)c1csc(N)n1 [Ceftiofur]	>4	>4	>4	> 4	>4	>4	> 4			
O=C(N[C@H](CO)[C@H](O)c1ccc([N+](=O)[O-])cc1)C(Cl)Cl [Chloramphenicol]	>16	>16	>16	> 16	≤4	≤4	≤ 4	≤4 µg/mL		
CC1(C)S[C@@H]2[C@H](NC(=O)[C@H](N)c3ccccc3)C(=O)N2[C@H]1C(=O)O [Ampicillin]	>16	>16	>16	> 16	>16	>16	> 16	>16 µg/mL		
Amoxicillin/clavulanic acid [Amoxicillin/clavulanic acid (2:1)]	>32	>32	>32		8	8		8/4	>32	16
CNC(C)C1CCC(N)C(OC2C(N)CC(N)C(OC3OCC(C)(O)C(NC)C3O)C2O)O1 (stereo not drawn) [Gentamicin]	≤1	2	≤1	2	>8	>8	> 8	>8 µg/mL		
Ticarcillin/clavulanic acid [Ticarcillin/clavulanic acid (2:1)]	>64	>64	>64		16	32			>64	64
CC[C@H]1OC(=O)[C@H](C)[C@@H](O[C@H]2C[C@@](C)(OC)[C@@H](O)[C@H](C)O2)[C@H](C)[C@@H](O[C@@H]2O[C@H](C)C[C@H](N(C)C)[C@H]2O)[C@](C)(O)C[C@@H](C)C(=O)[C@H](C)[C@@H](O)[C@]1(C)O [Erythromycin]	>4	>4	>4	> 4			> 4			>4
CO[C@@]1(NC(=O)Cc2cccs2)C(=O)N2C(C(=O)O)=C(COC(N)=O)CS[C@@H]21 [Cefoxitin]	>16	>16	>16	> 16	>16	4	8			
CN1CCN(c2c(F)cc3c(=O)c(C(=O)O)cn4c3c2OCN4C)CC1 [Marbofloxacin]	>2	>2	>2	> 2	>2	>2	> 2	>2 µg/mL		
C[C@@H](O)[C@H]1C(=O)N2C(C(=O)O)=C(SCCN=CN)C[C@H]12 [Imipenem]	>8	>8	>8	> 8	≤1	≤1	≤ 1	≤1 µg/mL		
COCC1=C(C(=O)O)N2C(=O)[C@@H](NC(=O)/C(=N\OC)c3csc(N)n3)[C@H]2SC1 [Cefpodoxime]	>16	>16	>16	> 16	>16	>16	> 16	>16 µg/mL		
CO/N=C(/C(=O)N[C@@H]1C(=O)N2C(C(=O)O)=C([C@@H]3CCCO3)CS[C@H]12)c1csc(N)n1 [Cefovecin]	>8	>8	>8		>8	>8		>8 µg/mL	>8	>8
Cc1nnc(SCC2=C(C(=O)O)N3C(=O)[C@@H](NC(=O)Cn4cnnn4)[C@H]3SC2)s1 [Cefazolin]	>16	>16	>16	> 16	>16	>16	> 16	>16 µg/mL		
